# Measured values from ChEMBL document CHEMBL1201862, “PubChem BioAssay data set” (2004).
#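 The compound was tested at five concentrations on cells cultured in 96-well plates, with a 48-hour exposure period. GI50: concentration for 50% inhibition of growth.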 Activity calls are given as the source filed them. Cut-off read from the data, not from the text of the source: active = GI50 up to about 1.1 µM and inactive = higher.
# What was measured:
# Experiment in all cases: NCI tumour cell line growth inhibition, 48 h
# M19-MEL = tested on: M19-MEL
# DMS-114 = tested on: DMS-114
# DMS-273 = tested on: DMS-273
# HOP-18 = tested on: HOP-18
# XF498 = tested on: XF498
# RXF 631 = tested on: RXF 631
# LXFL 529 = tested on: LXFL 529
Compound,GI50 (M19-MEL),GI50 (DMS-114),GI50 (DMS-273),GI50 (HOP-18),GI50 (XF498),GI50 (RXF 631),GI50 (LXFL 529)
O=C(N[C@@H](c1ccccc1)[C@@H](O)C(=O)OCc1ccc2c(c1)OCO2)c1ccccc1,> 100 µM (inactive),> 100 µM (inactive),> 100 µM (inactive),> 100 µM (inactive),> 76.2 µM (inactive),,
Cc1nc2c(o1)/C(=N\c1ccccc1)c1ccccc1/C2=N/c1ccccc1,55.1 µM (inactive),39.2 µM (inactive),63.5 µM (inactive),> 100 µM (inactive),> 100 µM (inactive),81.7 µM (inactive),45.3 µM (inactive)
CCOC(=O)/C=C/c1c[nH]c(=O)[nH]c1=O,> 75 µM (inactive),> 75 µM (inactive),> 75 µM (inactive),> 75 µM (inactive),11.9 µM (inactive),,
Cc1cc(O)c2c(c1)C(=O)c1cc(O)cc(O)c1C2=O [EMODIN],,41.2 µM (inactive),19.8 µM (inactive),3.94 µM (inactive),26.1 µM (inactive),39.3 µM (inactive),24.4 µM (inactive)
CC1C(=O)CC(c2cccs2)N(N=O)C1c1cccs1 (stereo unspecified),47.8 µM (inactive),,38.5 µM (inactive),75.2 µM (inactive),3.08 µM (inactive),,
COC(=O)C1CCC[C@H]2C(CO)=C(C)C(=O)[C@@H]12 (stereo partly specified),,> 100 µM (inactive),> 100 µM (inactive),> 100 µM (inactive),> 100 µM (inactive),,> 100 µM (inactive)
CC1(c2cc3c(cc2Br)OCO3)SCCCS1,39.6 µM (inactive),32.2 µM (inactive),45.2 µM (inactive),,29.5 µM (inactive),44.9 µM (inactive),45.7 µM (inactive)
Cc1cccc(C(C)(C)C)c1NC(=O)CCc1nnc(S)[nH]1,> 100 µM (inactive),> 100 µM (inactive),> 100 µM (inactive),,> 100 µM (inactive),> 100 µM (inactive),> 100 µM (inactive)
Cc1ccccc1C(=O)c1c(O)c2c(c(O)c1Br)CCCC2,15.6 µM (inactive),13.6 µM (inactive),17.6 µM (inactive),12.5 µM (inactive),21.7 µM (inactive),,13 µM (inactive)
N#CCCc1nc2ccc(Br)cc2c(=O)n1-c1ccc(O)c([N+](=O)[O-])c1,19.4 µM (inactive),,,,17.1 µM (inactive),17.9 µM (inactive),20 µM (inactive)
O=C(CC(=O)n1nc(-c2ccccc2)c(/N=N/c2ccc(Cl)cc2)c1-c1ccccc1)Nc1ccc(Cl)cc1,> 47.8 µM (inactive),> 40.6 µM (inactive),> 55.1 µM (inactive),> 100 µM (inactive),,> 100 µM (inactive),> 60 µM (inactive)
C=C1CCC23CC(CC[C@@H]2[C@@]12C[C@@H](c1ccoc1)OC2=O)OC3=O (stereo partly specified),> 100 µM (inactive),> 100 µM (inactive),> 100 µM (inactive),> 100 µM (inactive),> 100 µM (inactive),,> 100 µM (inactive)
CCOC(=O)C1=C(C)N(NC(N)=O)C(C)(O)C12CCOC2=O (stereo unspecified),> 100 µM (inactive),,> 100 µM (inactive),,> 100 µM (inactive),> 100 µM (inactive),> 100 µM (inactive)
CC1=C[C@@H]2Cc3occc3C(C)(C)[C@@H]2CC1,15.6 µM (inactive),20.2 µM (inactive),13.6 µM (inactive),23.6 µM (inactive),15.3 µM (inactive),20.4 µM (inactive),37.5 µM (inactive)
CCCCCCCCOC(CO)CO,> 100 µM (inactive),> 100 µM (inactive),> 100 µM (inactive),> 100 µM (inactive),,,> 100 µM (inactive)
C#Cc1c(C)c(/C=C/C(C)=C/C=C/C(C)=C/C(=O)OC)n(C)c1C,> 100 µM (inactive),> 100 µM (inactive),,,> 100 µM (inactive),> 100 µM (inactive),> 100 µM (inactive)
N#C/N=C(/N)NCO,> 60.5 µM (inactive),> 43 µM (inactive),> 90.4 µM (inactive),> 100 µM (inactive),> 60.8 µM (inactive),> 100 µM (inactive),> 63.1 µM (inactive)
COC(=O)/C(C#N)=C1\NN=NN1CCCc1ccccc1,> 100 µM (inactive),> 100 µM (inactive),> 100 µM (inactive),90.6 µM (inactive),,> 100 µM (inactive),> 100 µM (inactive)
CCOC(=O)NC(=O)c1cn(CCSCCOC(=O)NCCCCCCNC(=O)OCCSCCn2cc(C(=O)NC(=O)OCC)c(=O)n(C)c2=O)c(=O)n(C)c1=O,21.4 µM (inactive),,,0.237 µM (active),18.1 µM (inactive),21 µM (inactive),5.36 µM (inactive)
CC(NC1CCCC[C@@H]1O)c1ccccc1 (stereo partly specified),> 100 µM (inactive),,> 100 µM (inactive),> 100 µM (inactive),> 100 µM (inactive),,> 100 µM (inactive)
CC(=O)C(=Cc1cn(C)c(=O)n(C)c1=O)C(C)=O,109 µM (inactive),88.9 µM (inactive),98.6 µM (inactive),160 µM (inactive),37.8 µM (inactive),,
